Experimental data: patent US10195170B2, “Methods for inhibiting expression of ASC, expression of NLRP3, and/or formation of NLRP3 inflammasome complex using diacerein or its analogs” (TWi Biotechnology, Inc., priority 2015, dated 2019)

What was measured:
ASC = test: Immunofluorescence staining (fluorescence confocal assay) of ASC in MSU-stimulated THP-1 cells; type: cell-based, human; conditions: PMA-primed THP-1 cells, then 100 μg/mL MSU for 6 hours
Description: (§1) The 20 mg of rhein powder was dissolved in 1 mL 100% dimethyl sulfoxide (DMSO), sterilized by 0.22 μm pore filter membranes, and stored at −20° C. before use. The monosodium urate (MSU) crystal (10 mg/mL) was prepared in sterilized phosphate buffered saline (PBS). The adenosine […] disodium salt (ATP) was dissolved in ddH2O and sterilized by 0.22 μm pore filter membranes. THP-1, human acute monocytic leukemia cell line (ATCC® TIB-202), were suspended in RPMI-1640 medium (GIBCO, Life Technologies, Grand Island, USA) supplemented with 10% fetal bovine serum and 1% of antibiotics (penicillin-streptomycin-amphotericin B) conditioned media. For macrophage-like differentiation, THP-1 cells were primed by 0.1 μM phorbol myristyl acetate (PMA) for 24 hours. […] For cell viability, PMA-primed THP-1 cells were detected in the presence or absence of rhein incubation for 24 hours by the Cell Counting Kit-8 (CCK-8 assay, Sigma-Aldrich, St Louis, USA). […] Fluorescence confocal assay was performed to detect the human ASC and NLRP3 expression in paraformaldehyde-fixed THP-1 cells after treatment. […] The stained areas of ASC (green) and NLRP3 (red) staining distributions were quantified and analyzed by Metamorph analyzer. […] P-value was determined by the two-tailed unpaired t-test.

NLRP3 = test: Immunofluorescence staining (fluorescence confocal assay) of NLRP3 in MSU-stimulated THP-1 cells; type: cell-based, human; conditions: PMA-primed THP-1 cells, then 100 μg/mL MSU for 6 hours
Description: as §1

## O=C(O)c1cc(O)c2c(c1)C(=O)c1cccc(O)c1C2=O [rhein, 9, 10-dihydro-4,5-dihydroxy-9, 10-dioxo-2-anthracene carboxylic acid]
ASC; rhein 5 μg/mL overnight (lower dose), P=0.0011
  decrease of staining of ASC sections, average intensity of area/cell: about 64.0%
ASC; rhein 10 μg/mL overnight (higher dose), P=0.0022
  decrease of staining of ASC sections, average intensity of area/cell: ~79.0%
NLRP3; rhein 5 μg/mL overnight (lower dose), P=0.014
  inhibition of NLRP3 levels, average intensity of area/cell: about 62.5%
NLRP3; rhein 10 μg/mL overnight (higher dose), P=0.0012
  inhibition of NLRP3 levels, average intensity of area/cell: ~84.1%
